# Test results: patent US6875891B2, “Process for preparing highly water soluble double salts of hydroxycitric acid particularly alkali and alkaline earth metal double salts” (Laila Impex, priority 2003, dated 2005)
# Assays:
# [1] = background statement on known salts; cited from earlier work
# [2] = background statement; cited from earlier work
# [3] = equilibration between free acid form and lactone form when dissolved in water; type: physicochemical
molecule,measurement,setting,value
"O=C([O-])C[C@@](O)(C(=O)[O-])[C@H](O)C(=O)[O-].O=C([O-])C[C@@](O)(C(=O)[O-])[C@H](O)C(=O)[O-].[Ca+2].[Ca+2].[Ca+2] [calcium salt, calcium salt of hydroxycitric acid]",solubility in water,[1],poorly soluble in water
O=C([O-])C[C@@](O)(C(=O)[O-])[C@H](O)C(=O)[O-].[K+].[K+].[K+] [tripotassium salt],hygroscopicity,[2],highly hygroscopic
calcium/potassium double salt of hydroxycitric acid [Ca/K double salt],equilibration between free form and lactone form of hydroxycitric acid,[3],does not equilibrate between the free form and the lactone form
